# Assay results reported in patent publication US9238026B2, “Inhibitors of viral replication, their process of preparation and their therapeutical uses” (priority 2011, dated 2016).
# Like-named read-outs stand apart in the source and are kept apart here.
# Tested on: NL4-3 strain of HIV-1
# Assay: microbe, parasite or virus in culture
# Type: cell-based
# Experimental: The antiviral activity, particularly against HIV, of compounds according to the invention is evaluated by the protocol described below.
# Preparation of Virus stock of the NL4-3 strain of HIV-1
# The virus was prepared as described in Lopez et al (Lopez et al, Proc Natl Acad Sci USA., 2006, 103(40):14947-52, by transfecting 2×10^6 293T cells (CRL-1573, ATCC) with following modifications: 6 μg of NL4-3 proviral DNA molecular clone were mixed with Fugene 6 transfection reagent from Roche, and used according to manufacturer's instructions. Forty eight hours later, transfected cell supernatants were harvested, filtered through 0.45-μm-pore-size filters, quantified for HIV-1 p24 antigen by using a Innotest HIV antigen mAb assay (Ingen) according to manufacturer's instructions, and used in infection experiments.
# Serial dilutions of compounds to be tested were prepared in complete RPMI medium from 10 mM DMSO stock solutions, and distributed in a volume of 20 μl in 96 well Falcon 353072 Microtest™ tissue culture plate, in order to get 0.5% DMSO final concentration in each well, after the addition of infected cells. Control wells contained also 0.5% DMSO final concentration but no compound.
# MT4 cells (from the NIH AIDS Research and Reference Reagent Program) in RPMI complete medium were counted (10×10^6 cells per well in Falcon 353047 Multiwell™ 24 well) and infected for 2 hours at 37°, at a multiplicity of infection (moi) of 0.0001-0.00001. Cells were then centrifuged 3 min at 3000 rpm, and washed two times in 1 ml PBS to remove viruses that have not entered in cells. Infected cells were resuspended in complete RPMI at 1.25×10^6 cells/ml, and […] of infected cells were distributed in each well containing compounds to be tested or control wells. The plates were then incubated at 37° for 5 days.
# Assay used to measure the inhibition of HIV replication by the compounds
# (according to Gregg S. Jones et al., Antimicrobial Agents and Chemotherapy, 2009, 53 (3): 1194-1203).
# After 5 days of incubation, 50 μl of CellTiter-Glo reagent (Promega Biosciences, Inc., Madison Wis., USA) were added to each well. Cell lysis was carried out at room temperature during 10 min, 150 μl of lysates were transferred in Packard Optiplate 96 well, and luminescence was read on a Fluoroskan (Thermo Scientific).
# The EC50, or effective concentration 50, is the concentration of compound leading to 50% of cyto-protection in a Cell-Titer-Glo® viability assay based on MT4 cells infected with NL4.3 virus.
# [1] = Human immunodeficiency virus 1, NL43, 120 h, concentration leading to 50% of cyto-protection, MT4 cells infected with NL4.3 virus, 5 days incubation, CellTiter-Glo, read-out: EC50
Compound,EC50 [1] [µM],"EC50 (Human immunodeficiency virus 1, NL43, MT4, 120 h) [µM]"
"CC1=C(c2ccc3c(c2)CCCO3)C(C(OC(C)(C)C)C(=O)O)=C(C)S1(=O)=O (stereo not shown) [Example 18, (tert-butoxy)[4-(3,4-dihydro-2H-1-benzopyran-6-yl)-2,5-dimethyl-1,1-dioxo-1λ^6-thiophen-3-yl]acetic acid]",34,–
"Cc1sc(C)c(C(OC(C)(C)C)C(=O)O)c1C1=CCC(C)(C)CC1 (stereo not shown) [Example 52, tert-butoxy-[4-(4,4-dimethyl-cyclohex-1-enyl)-2,5-dimethyl-thiophen-3-yl]-acetic acid]",–,33
"Cc1sc(C)c(C(OC(C)(C)C)C(=O)O)c1-c1ccc(Cl)cc1 (stereo not shown) [Example 50, tert-butoxy-[4-(4-chloro-phenyl)-2,5-dimethyl-thiophen-3-yl]-acetic acid]",44,–
"Cc1sc(Cl)c(-c2ccc3c(c2)CCCO3)c1C(OC(C)(C)C)C(=O)O (stereo not shown) [Example 44, 2-(tert-butoxy)-2-[5-chloro-4-(3,4-dihydro-2H-1-benzopyran-6-yl)-2-methylthiophen-3-yl]acetic acid]",16,–
"Cc1sc(C)c(C(OC(C)(C)C)C(=O)O)c1-c1ccccc1Cl (stereo not shown) [Example 51, tert-butoxy-[4-(2-chloro-phenyl)-2,5-dimethyl-thiophen-3-yl]-acetic acid]",41,–
"Cc1sc(C)c(C(OC(C)(C)C)C(=O)O)c1-c1ccc2c(c1)CCCO2 (stereo not shown) [Example 17, 2-(tert-butoxy)-2-[4-(3,4-dihydro-2H-1-benzopyran-6-yl)-2,5-dimethylthiophen-3-yl]acetic acid]",26,–
"Cc1sc(C)c(C(OC(C)(C)C)C(=O)O)c1C1=CCCCC1 (stereo not shown) [Example 29, 2-(tert-butoxy)-2-[4-(cyclohex-1-en-1-yl)-2,5-dimethylthiophen-3-yl]acetic acid]",33,–
"Cc1cccc2c1C(c1ccc3c(c1)CCCO3)=C(C(OC(C)(C)C)C(=O)O)S2(=O)=O (stereo not shown) [Example 24, 2-(tert-butoxy)-2-[3-(3,4-dihydro-2H-1-benzopyran-6-yl)-4-methyl-1,1-dioxo-1λ^6-benzothiophen-2-yl]acetic acid]",11,–
"Cc1sc(C)c(C(OC(C)(C)C)C(=O)O)c1C1=CCCCCC1 (stereo not shown) [Example 31, 2-(tert-butoxy)-2-[4-(cyclohept-1-en-1-yl)-2,5-dimethylthiophen-3-yl]acetic acid]",29,–
"Cc1sc(C)c(C(OC(C)(C)C)C(=O)O)c1-c1ccc2c(c1)CCCC2 (stereo not shown) [Example 39, 2-(tert-butoxy)-2-[2,5-dimethyl-4-(5,6,7,8-tetrahydronaphthalen-2-yl)thiophen-3-yl]acetic acid]",41,–
"CC(C)(C)OC(C(=O)O)c1c(C(F)(F)F)nn(C2CCCCC2)c1-c1ccc2c(c1)CCCO2 (stereo not shown) [Example 54, 2-(tert-butoxy)-2-[1-cyclohexyl-5-(3,4-dihydro-2H-1-benzopyran-6-yl)-3-(trifluoromethyl)-1H-pyrazol-4-yl]acetic acid]",2.2,–
"Cc1cccc2sc(C(OC(C)(C)C)C(=O)O)c(-c3ccc4c(c3)CCCO4)c12 (stereo not shown) [Example 23, 2-(tert-butoxy)-2-[3-(3,4-dihydro-2H-1-benzopyran-6-yl)-4-methyl-1-benzothiophen-2-yl]acetic acid]",23,–
"Cc1sc(C)c(C(SC(C)(C)C)C(=O)O)c1-c1ccc2c(c1)CCCO2 (stereo not shown) [Example 32, 2-(tert-butylsulfanyl)-2-[4-(3,4-dihydro-2H-1-benzopyran-6-yl)-2,5-dimethylthiophen-3-yl]acetic acid]",26,–
